Measured values from patent US11970474B2, “Substituted benzodiazoles and use thereof in therapy” (THOMAS HELLEDAYS STIFTELSE FÖR MEDICINSK FORSKNING, priority 2018, dated 2024).

Target: OGG1 (Homo sapiens (Human), UniProt O15527)
Assay: In vitro OGG1 activity assay
Format: biochemical
Details: 800 pM OGG1 enzyme, 2 nM human APEX1, 10 nM 8-oxoA:C substrate
Description: Method 1: In Vitro OGG1 Activity Assay OGG1 activity is assayed by measuring the increase in fluorescence from a duplex oligonucleotide containing an OGG1 substrate and a fluorophore in close proximity that are quenched by a quencher on the complementary strand. […] OGG1 activity releases the substrate base from DNA by cleaving the N-glycosidic bond between base and deoxyribose. The resulting apurinic site is cleaved by an excessive amount APEX1 activity which cause the duplex to melt, which in turn cause the fluorophore to become unquenched. Compounds to be tested are dissolved in DMSO and nano-dispensed directly into black 384-well plates, followed by transfer of enzyme and substrate solutions. […] The fluorescent signal is recorded in a plate reader equipped with suitable filters to register fluorescein fluorescence.

OGG1, sequence (O15527 whole entry): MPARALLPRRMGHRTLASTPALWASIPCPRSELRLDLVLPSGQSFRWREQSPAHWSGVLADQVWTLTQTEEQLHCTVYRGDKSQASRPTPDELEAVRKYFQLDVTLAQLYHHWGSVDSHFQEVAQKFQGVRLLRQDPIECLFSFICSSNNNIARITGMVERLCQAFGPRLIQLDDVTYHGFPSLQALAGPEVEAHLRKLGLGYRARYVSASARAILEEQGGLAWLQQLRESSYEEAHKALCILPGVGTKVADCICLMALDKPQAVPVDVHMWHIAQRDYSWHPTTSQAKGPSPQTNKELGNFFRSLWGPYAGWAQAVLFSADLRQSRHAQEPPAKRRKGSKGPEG

Row | IC50 | SMILES
1 | 2800 nM | O=C(Nc1ccc(Cl)cc1)N1CCC(n2c(=O)[nH]c3cc(Cl)ccc32)CC1 [Example 1, 4-(5-Chloro-2-oxo-2,3-dihydro-1H-1,3-benzodiazol-1-yl)-N-(4-chlorophenyl) piperidine-1-carboxamide]
2 | 660 nM | Cc1cccc2c1[nH]c(=O)n2C1CCN(C(=O)Nc2ccc(I)cc2)CC1 [Example 4, N-(4-iodophenyl)-4-(4-methyl-2-oxo-2,3-dihydro-1H-1,3-benzodiazol-1-yl)piperidine-1-carboxamide]
3 | 540 nM | O=C(Nc1ccc(I)cc1)N1CCC(n2c(=O)[nH]c3c(O)cccc32)CC1 [Example 6, 4-(4-Hydroxy-2-oxo-2,3-dihydro-1H-1,3-benzodiazol-1-yl)-N-(4-iodophenyl)piperidine-1-carboxamide]
4 | 1080 nM | Cc1cccc2c1[nH]c(=O)n2C1CCN(C(=O)Nc2ccc(Cl)cc2)CC1 [Example 7, N-(4-chlorophenyl)-4-(4-methyl-2-oxo-2,3-dihydro-1H-1,3-benzodiazol-1-yl)piperidine-1-carboxamide]
5 | 1550 nM | COc1cccc2c1[nH]c(=O)n2C1CCN(C(=O)Nc2ccc(Cl)cc2)CC1 [Example 8, N-(4-chlorophenyl)-4-(4-methoxy-2-oxo-2,3-dihydro-1H-1,3-benzodiazol-1-yl)piperidine-1-carboxamide]
6 | 796 nM | O=C(Nc1ccc(Cl)c(Cl)c1)N1CCC(n2c(=O)[nH]c3c(O)cccc32)CC1 [Example 9, N-(3,4-dichlorophenyl)-4-(4-hydroxy-2-oxo-2,3-dihydro-1H-1,3-benzodiazol-1-yl)piperidine-1-carboxamide]
7 | 1780 nM | Cc1ccc2c(c1)[nH]c(=O)n2C1CCN(C(=O)Nc2ccc(I)cc2)CC1 [Example 11, N-(4-iodophenyl)-4-(5-methyl-2-oxo-2,3-dihydro-1H-1,3-benzodiazol-1-yl)piperidine-1-carboxamide]
8 | 1420 nM | O=C(Nc1ccc(I)c(Cl)c1)N1CCC(n2c(=O)[nH]c3cc(Cl)ccc32)CC1 [Example 17, 4-(5-Chloro-2-oxo-2,3-dihydro-1H-1,3-benzodiazol-1-yl)-N-(3-chloro-4-iodophenyl)piperidine-1-carboxamide]
9 | 1390 nM | CCOc1cccc2c1[nH]c(=O)n2C1CCN(C(=O)Nc2ccc(I)cc2)CC1 [Example 18, 4-(4-Ethoxy-2-oxo-2,3-dihydro-1H-1,3-benzodiazol-1-yl)-N-(4-iodophenyl)piperidine-1-carboxamide]
10 | 765 nM | O=C(Nc1ccc(I)cc1)N1CCC(n2c(=O)[nH]c3c(-c4ccc[nH]4)cccc32)CC1 [Example 25, N-(4-iodophenyl)-4-[2-oxo-4-(1H-pyrrol-2-yl)-2,3-dihydro-1H-1,3-benzodiazol-1-yl]piperidine-1-carboxamide]
11 | 2060 nM | Nc1cccc(-c2cccc3c2[nH]c(=O)n3C2CCN(C(=O)Nc3ccc(Cl)c(Cl)c3)CC2)c1 [Example 29, 4-[4-(3-Aminophenyl)-2-oxo-2,3-dihydro-1H-1,3-benzodiazol-1-yl]-N-(3,4-dichlorophenyl)piperidine-1-carboxamide]
12 | 1710 nM | O=C(Nc1ccc(I)cc1)N1CCC(n2c(=O)[nH]c3c(CCO)cccc32)CC1 [Example 30, 4-[4-(2-Hydroxyethyl)-2-oxo-2,3-dihydro-1H-1,3-benzodiazol-1-yl]-N-(4-iodophenyl)piperidine-1-carboxamide]
13 | 1090 nM | O=C(Nc1ccc(I)cc1)N1CCC(n2c(=O)[nH]c3c(C4CC4)cccc32)CC1 [Example 31, 4-(4-Cyclopropyl-2-oxo-2,3-dihydro-1H-1,3-benzodiazol-1-yl)-N-(4-iodophenyl)piperidine-1-carboxamide]
14 | 2530 nM | NCc1ccc(-c2cccc3c2[nH]c(=O)n3C2CCN(C(=O)Nc3ccc(Cl)c(Cl)c3)CC2)cc1 [Example 33, 4-{4-[4-(Aminomethyl)phenyl]-2-oxo-2,3-dihydro-1H-1,3-benzodiazol-1-yl}-N-(3,4-dichlorophenyl)piperidine-1-carboxamide]
15 | 502 nM | O=C(Nc1ccc(I)cc1)N1CCCC(n2c(=O)[nH]c3c(Br)cccc32)CC1 (stereo not shown) [Example 34, 4-(4-Bromo-2-oxo-2,3-dihydro-1H-1,3-benzodiazol-1-yl)-N-(4-iodophenyl)azepane-1-carboxamide]
16 | 1970 nM | O=C(O)c1ccc(-c2cccc3c2[nH]c(=O)n3C2CCN(C(=O)Nc3ccc(Cl)c(Cl)c3)CC2)cc1 [Example 35, 4-(1-{1-[(3,4-Dichlorophenyl)carbamoyl]piperidin-4-yl}-2-oxo-2,3-dihydro-1H-1,3-benzodiazol-4-yl)benzoic acid]

Row | IC50 | SMILES
17 | 3650 nM | CN(C)CCOc1ccc(-c2cccc3c2[nH]c(=O)n3C2CCN(C(=O)Nc3ccc(Cl)c(Cl)c3)CC2)cc1 [Example 36, N-(3,4-dichlorophenyl)-4-(4-{4-[2-(dimethylamino)ethoxy]phenyl}-2-oxo-2,3-dihydro-1H-1,3-benzodiazol-1-yl)piperidine-1-carboxamide]
18 | 6320 nM | O=C(Nc1ccc(Cl)c(Cl)c1)N1CCC(n2c(=O)[nH]c3c(-c4ccc(C(=O)C(F)(F)F)cc4)cccc32)CC1 [Example 40, N-(3,4-dichlorophenyl)-4-{2-oxo-4-[4-(2,2,2-trifluoroacetyl)phenyl]-2,3-dihydro-1H-1,3-benzodiazol-1-yl}piperidine-1-carboxamide]
19 | 2410 nM | CCc1ccc(NC(=O)N2CCC(n3c(=O)[nH]c4c(Br)cccc43)CC2)cc1 [Example 42, 4-(4-Bromo-2-oxo-2,3-dihydro-1H-1,3-benzodiazol-1-yl)-N-(4-ethylphenyl)piperidine-1-carboxamide]
20 | 408 nM | Cc1cc(NC(=O)N2CCC(n3c(=O)[nH]c4c(-c5ccc(CO)nc5)cccc43)CC2)ccc1I [Example 81, 4-{4-[6-(Hydroxymethyl)pyridin-3-yl]-2-oxo-2,3-dihydro-1H-1,3-benzodiazol-1-yl}-N-(4-iodo-3-methylphenyl)piperidine-1-carboxamide]
21 | 1760 nM | CCN(CC)C(=O)c1cnn(-c2cccc3c2[nH]c(=O)n3C2CCN(C(=O)Nc3ccc(I)cc3)CC2)c1 [Example 88, 4-{4-[4-(Diethylcarbamoyl)-1H-pyrazol-1-yl]-2-oxo-2,3-dihydro-1H-1,3-benzodiazol-1-yl}-N-(4-iodophenyl)piperidine-1-carboxamide]
22 | 218 nM | O=C(NCC(O)CO)c1cnn(-c2cccc3c2[nH]c(=O)n3C2CCN(C(=O)Nc3ccc(I)cc3)CC2)c1 (stereo not shown) [Example 90, 4-(4-{4-[(2,3-Dihydroxypropyl)carbamoyl]-1H-pyrazol-1-yl}-2-oxo-2,3-dihydro-1H-1,3-benzodiazol-1-yl)-N-(4-iodophenyl)piperidine-1-carboxamide]
23 | 1810 nM | COc1cc(NC(=O)N2CCC(n3c(=O)[nH]c4c(-c5cccnc5)cccc43)CC2)ccc1C [Example 95, N-(3-methoxy-4-methylphenyl)-4-[2-oxo-4-(pyridin-3-yl)-2,3-dihydro-1H-1,3-benzodiazol-1-yl]piperidine-1-carboxamide]
24 | 1720 nM | COc1cc(NC(=O)N2CCC(n3c(=O)[nH]c4c(-c5cncc(N)c5)cccc43)CC2)ccc1C [Example 97, 4-[4-(5-Aminopyridin-3-yl)-2-oxo-2,3-dihydro-1H-1,3-benzodiazol-1-yl]-N-(3-methoxy-4-methylphenyl)piperidine-1-carboxamide]
25 | 2620 nM | COc1ccc(NC(=O)N2CCC(n3c(=O)[nH]c4c(-c5cccnc5)cccc43)CC2)cc1Cl [Example 98, N-(3-chloro-4-methoxyphenyl)-4-[2-oxo-4-(pyridin-3-yl)-2,3-dihydro-1H-1,3-benzodiazol-1-yl]piperidine-1-carboxamide]
26 | 1160 nM | COc1ccc(NC(=O)N2CCC(n3c(=O)[nH]c4c(-c5ccc(N)nc5)cccc43)CC2)cc1Cl [Example 99, 4-[4-(6-Aminopyridin-3-yl)-2-oxo-2,3-dihydro-1H-1,3-benzodiazol-1-yl]-N-(3-chloro-4-methoxyphenyl)piperidine-1-carboxamide]
27 | 2260 nM | COc1ccc(NC(=O)N2CCC(n3c(=O)[nH]c4c(-c5cnc6[nH]ncc6c5)cccc43)CC2)cc1Cl [Example 101, N-(3-chloro-4-methoxyphenyl)-4-(2-oxo-4-{1H-pyrazolo[3,4-b]pyridin-5-yl}-2,3-dihydro-1H-1,3-benzodiazol-1-yl)piperidine-1-carboxamide]
28 | 2770 nM | COc1cc(NC(=O)N2CCC(n3c(=O)[nH]c4c(-c5cccnc5)cccc43)CC2)ccc1Cl [Example 102, N-(4-chloro-3-methoxyphenyl)-4-[2-oxo-4-(pyridin-3-yl)-2,3-dihydro-1H-1,3-benzodiazol-1-yl]piperidine-1-carboxamide]
29 | 2280 nM | COc1cc(NC(=O)N2CCC(n3c(=O)[nH]c4c(-c5cncc(N)c5)cccc43)CC2)ccc1Cl [Example 104, 4-[4-(5-Aminopyridin-3-yl)-2-oxo-2,3-dihydro-1H-1,3-benzodiazol-1-yl]-N-(4-chloro-3-methoxyphenyl)piperidine-1-carboxamide]
30 | 2940 nM | COc1ccc(-c2cccc3c2[nH]c(=O)n3C2CCN(C(=O)Nc3ccc(Cl)c(OC)c3)CC2)cn1 [Example 105, N-(4-chloro-3-methoxyphenyl)-4-[4-(6-methoxypyridin-3-yl)-2-oxo-2,3-dihydro-1H-1,3-benzodiazol-1-yl]piperidine-1-carboxamide]
31 | 1750 nM | COc1ccc(NC(=O)N2CCC(n3c(=O)[nH]c4c(N(C)CCN(C)C)cccc43)CC2)cc1Cl [Example 106, N-(3-chloro-4-methoxyphenyl)-4-(4-{[2-(dimethylamino)ethyl](methyl)amino}-2-oxo-2,3-dihydro-1H-1,3-benzodiazol-1-yl)piperidine-1-carboxamide]
